Results: patent publication US11129836B2, “PAR-4 agonists for the treatment of cancer” (Cipla Limited, priority 2016, dated 2021)

Columns and labels:
[1] = system: PAR-4; test: PAR-4 secretion assay, Western blot of conditioned media and lysate; format: cell-based, mouse
Experimental: Material: DMEM media, FBS, Mouse embryonic fibroblast cells, PAR-4 antibody, Antirabbit IgG-HRP, Collagen A1 antibody, B-actin antibody, Antimouse IgG HRP
Six well plate seeded (2 ml per well) with Mouse embryonic fibroblast cells in DMEM+10% FBS. The plate was incubated for 16-18 hrs, 37° C. 5% CO2.
Drugs to be tested are diluted with suitable solvent to obtain 25 mM concentration. Media from cells is discarded and replaced with DMEM media with 0.1% FBS. Compound added to the cells at final concentration of 25 μM.
Conditioned media (CM-supernatant) is collected from each well and centrifuged at 1000 rpm/5 mins to remove cell debris. After centrifugation the media was poured in concentration filters (Amicon ultracentrifuge tube with cutoff 10 Kda) and again centrifuged at 4500 rpm/15 mins at 4° C. The media was concentrated to 100 μl and then mixed with 50 μl of loading dye. The mixture was maintained in a 100° C. dry bath/water bath for 10 mins. SDS-PAGE and a western blot was performed of the samples using broad range molecular weight marker.

[2] = system: Mouse embryonic fibroblast cells; test: Assay to analyse non-cytotoxic concentration (CellTiter 96 AQueous One cell proliferation assay); format: cell-based; conditions: up to 48 hours, highest concentration of 125 μM
Experimental: Mouse embryonic fibroblast cells were plated in 96-well cell culture plates (2×10^4 cells/well) and were treated with drug/s at various concentrations. […] After the incubation anti-proliferative activity of test compounds was measured using ProMega Cell Titer aqueous one solution cell proliferation assay kit, viz. CellTiter 96® AQueous One Solution Reagent. Cells were incubated for 1-4 hours at 37° C., 5% CO2 incubator and absorbance was measured at 490 nm using a plate reader. IC50 values were determined by plotting compound concentration versus cell viability.

[3] = system: PAR-4; conditions: mouse embryonic fibroblast (MEF) cells, at micromolar levels; cited from earlier work

Compound	PAR-4 secretion (FIG. 1, Western blot) ([1]; mouse embryonic fibroblast cells)	increase in the secretion of intracellular PAR-4 ([1]; mouse embryonic fibroblast cells (lysate), compared to DMSO control, Western blot, compound at 25 μM)	increase in the secretion of PAR-4 in the conditioned media ([1]; mouse embryonic fibroblast cells, compared to DMSO control, Western blot, compound at 25 μM)	toxicity in Mouse Embryonic fibroblast cells [2]	stimulation of PAR-4 secretion [3]
CO/N=C(\C(=O)N[C@@H]1C(=O)N2C(C(=O)O)=C(COC(N)=O)CS[C@H]12)c1ccco1 [Cefuroxime, (6R, 7R)-3-{[(aminocarbonyl)oxy]methyl}-7-{[(2Z)-2-(2-furyl)-2-(methoxyimino)acetyl]amino}-8-oxo-5-thia-1-azabicyclo [4.2.0]oct-2-ene-2-carboxylic acid]	increased PAR-4 secretion	about 2 fold	4-5 fold	does not show toxicity	–
COc1ccc(C2=N[C@@H](c3ccc(Cl)cc3)[C@@H](c3ccc(Cl)cc3)N2C(=O)N2CCNC(=O)C2)c(OC(C)C)c1 [Nutlin-3a]	–	–	–	–	stimulated PAR-4 secretion at micromolar levels
